Results from US4145554A, “3-Nitropyrazole derivatives” (Eli Lilly and Company, priority 1977, dated 1979).
≈ marks a conversion by molar mass, not a printed value. Like-named read-outs stand apart in the source and are kept apart here.

Columns and labels:
[1] = system: Mycoplasma hyorhinis; experiment: in vitro tube dilution test (MIC); format: cell-based
From the text: (§1) Our compound, 1-(2-hydroxyethyl)-3-nitro-4-pyrazolecarboxamide, has been extensively tested in vitro to determine the range of microorganisms against which it is active. The table of data below reports the minimum inhibitory concentration (MIC) at which the compound is effective in controlling a variety of microorganisms in a standard tube dilution test system. The MIC is reported as micrograms of compound per milliliter.
(§2) The other preferred compounds of our invention have also been thoroughly tested in the in vitro tube dilution test.

[2] = system: Pseudomonas sp.; experiment: in vitro tube dilution test (MIC); format: cell-based
From the text: as §1, §2

[3] = system: Salmonella heidelburg 1593; experiment: in vitro tube dilution test (MIC); format: cell-based; conditions: Salmonella heidelburg 1593, tube dilution
From the text: as §1, §2

[4] = system: Salmonella pullorum Ill.; experiment: in vitro tube dilution test (MIC); format: cell-based; conditions: Salmonella enterica
From the text: as §1, §2

[5] = system: Salmonella typhimurium 1335; experiment: in vitro tube dilution test (MIC); format: cell-based; conditions: Salmonella enterica; Salmonella typhimurium 1335, tube dilution
From the text: as §1, §2

[6] = system: Pasteurella multocida; experiment: in vitro tube dilution test (MIC); format: cell-based; conditions: tube dilution, read-out: MIC
In short: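 Standard tube dilution test; MIC is the lowest compound concentration controlling growth, given in μg/mL.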

[7] = system: Escherichia coli 0127; experiment: in vitro tube dilution test (MIC); format: cell-based; conditions: Escherichia coli 0127, tube dilution
From the text: as §2

[8] = system: Mycoplasma gallisepticum 38502; experiment: in vitro tube dilution test (MIC); format: cell-based; conditions: Mycoplasmoides gallisepticum; Mycoplasma gallisepticum 38502, tube dilution
From the text: as §2

[9] = system: Staphylococcus aureus 3055; experiment: in vitro tube dilution test (MIC); format: cell-based; conditions: Staphylococcus aureus 3055, tube dilution
From the text: as §2

[10] = system: Salmonella dublin; experiment: in vitro tube dilution test (MIC); format: cell-based; conditions: Salmonella enterica; Salmonella dublin, tube dilution; read-out: MIC
[11] = system: Staphylococcus aureus sp. 1130; experiment: in vitro tube dilution test (MIC); format: cell-based; conditions: read-out: MIC
[12] = system: Vibrio coli 3811; experiment: in vitro tube dilution test (MIC); format: cell-based; conditions: Campylobacter coli; Vibrio coli 3811, tube dilution; read-out: MIC
[13] = system: Erwinia amylovora; experiment: Fire blight of pear, in vivo greenhouse test
Procedure: An in vivo test was conducted against the fire blight organism, Erwinia amylovora. Plants infected with E. amylovora were sprayed with aqueous dispersions containing 100 ppm. and 500 ppm. of the test compounds. […] The compounds are identified below by their compound numbers in the above listing.

[14] = system: P. multocida; experiment: Mice infected with P. multocida, compound in drinking water; format: in vivo; conditions: 7 days
Procedure: Some of the 3-nitropyrazoles were also administered to mice infected with P. multocida. Tests were conducted in which the pyrazoles were administered both by injection and in the drinking water.
The table below reports results of tests in which the compound was administered in the water. Groups of 10 standardized white mice were segregated, and each mouse was infected by injecting a broth culture of P. multocida subcutaneously. The administration of the test compounds was begun at the same time the mice were infected by adding a known amount of the test compound to the drinking water of the mice. One group of infected control mice received no treatment. The mice were observed, and the test was concluded at the end of 7 days. The number of mice in each group which survived the P. multocida infection was recorded.

[15] = system: P. multocida; experiment: Mice infected with P. multocida, compound injected subcutaneously; format: in vivo
Procedure: A second test was conducted in much the same way, except that the 3-nitropyrazole was injected to the treated mice subcutaneously at the same time they were infected with the P. multocida culture.

[16] = system: Salmonella typhimurium; experiment: Salmonellosis in chickens, single injection to day-old chicks; format: in vivo; conditions: Salmonella enterica, TYPHIMURIUM, 168 h; single injection of 60 mg./kg.; seven days; read-out: Survival (converted)
In short: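 Five day-old chicks per group received one injection of compound at 60 mg./kg., then were challenged next day by subcutaneous S. typhimurium at a dose lethal to most or all untreated controls. Read-out is survivor count, pooled over repeat groups, with untreated challenged controls run in each batch.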

[17] = system: S. typhimurium; experiment: Salmonella typhimurium in chickens, medicated feed; format: in vivo, chicks; conditions: 200 gm./ton feed; for Avg. Wt.: surviving chicks
[18] = system: avian E. coli; experiment: Colibacillosis in chickens, medicated feed; format: in vivo
[19] = system: Escherichia coli; experiment: in vitro tube dilution test (MIC); format: cell-based; conditions: tube dilution, read-out: MIC
In short: (§3)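 Standard tube dilution test; MIC reported as micrograms of compound per milliliter.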

[20] = system: Mycoplasma gallisepticum; experiment: in vitro tube dilution test (MIC); format: cell-based; conditions: Mycoplasmoides gallisepticum; Mycoplasma gallisepticum, tube dilution; read-out: MIC
In short: as §3

[21] = system: Streptococcus sp. 80; experiment: in vitro tube dilution test (MIC); format: cell-based; conditions: Streptococcus sp. 80, tube dilution; read-out: MIC
From the text: Other compounds of our invention have also been tested in the tube dilution test and shown to have in vitro activity against a number of microorganisms. The table below reports tests of a number of exemplary compounds against exemplary microorganisms. The compounds are identified by their numbers in the listing above. The data are reported as the MIC in micrograms per milliliter against the named exemplary microorganisms.

[22] = system: large crabgrass; experiment: herbicidal activity, application to plants; format: in vivo; conditions: applied to foliage of growing plant at 1 lb./acre
From the text: The herbicidal compounds of our invention have shown the ability to control undesired plants at levels as low as 1 lb./acre. Herbicidal activity is obtained when the 3-nitropyrazole herbicide is applied to the plants to be controlled in the conventional manner, by direct application as a spray or dry formulation to the plant or its supporting soil.

[23] = system: H. meleagridis; experiment: Blackhead in poultry, turkeys; format: in vivo
Procedure: One- to three-week-old chicks and turkey poults were obtained from homogeneous source flocks and allocated into treatment groups. Some groups were held as infected, untreated controls, and other groups were treated with 3-nitropyrazoles by administering the compounds in the birds' feed. Various concentrations of the pyrazoles were administered to determine the least concentration which protected the birds. A few days after the administration of medicated feed began, all of the birds were challenged by rectally administering a suspension of at least 5,000 H. meleagridis protozoa per chick. The challenge organisms had been originally obtained from infected chickens, and were grown in vitro to provide a supply of organisms for testing.
The birds were held for about seven days after the challenge was administered, during which time the administration of pyrazole-medicated feed was continued. Then all of the chicks, including the untreated, infected controls, were sacrificed and necropsied. The cecum and the liver of each bird were examined for characteristic H. meleagridis lesions.
For each compound, the lowest feed concentration which gave an active response is indicated. While feed consumption data were not taken during the tests, the birds ate at such a rate that a feed concentration of 0.02 percent is equivalent to a treatment rate of about 10 mg./kg./day.

[24] = system: Trypanosoma cruzi (BHC/10 strain); experiment: use against Trypanosoma cruzi in rodents; format: in vivo; conditions: 12.5 mg./kg. for 10 days
Procedure: Some 3-nitropyrazoles have been used against Trypanosoma cruzi in rodents. The 3-nitro-1-vinyl-4-pyrazolecarboxamide killed 91 percent of T. cruzi of the BHC/10 strain when administered at 12.5 mg./kg. for 10 days.

[25] = Staphylococcus aureus, SP.1130, Staphyloccocus 1130, tube dilution
[26] = 100 gm./ton, further test, about 5 weeks of age
[27] = 200 gm./ton, further test, about 5 weeks of age
[28] = 300 gm./ton feed, about 5 weeks old, 10^-2 dilution challenge, first test
[29] = Staphylococcus aureus sp. 1130, tube dilution

| Compound | MIC [1] [mg/L] | MIC [2] [mg/L] | MIC [3] [mg/L] | MIC [4] [mg/L] | MIC [5] [mg/L] | MIC [6] [mg/L] | MIC [7] [mg/L] | MIC [8] [mg/L] | MIC [9] [mg/L] | MIC [10] [mg/L] | MIC [11, 25] [mg/L] | MIC [12] [mg/L] | Percent Control of fire blight ([13]; 100 ppm.) [%] | Percent Control of fire blight ([13]; 500 ppm.) [%] | Avg. Wt. [18, 26] [gm.] | E. coli Lesions [18, 26] | Mortality [18, 26] | Avg. Wt. [18, 27] [gm.] | E. coli Lesions [18, 27] | Mortality [18, 27] | also measured |
| --- | --- | --- | --- | --- | --- | --- | --- | --- | --- | --- | --- | --- | --- | --- | --- | --- | --- | --- | --- | --- | --- |
| CC(=O)OCCn1cc(C(N)=O)c([N+](=O)[O-])n1 [Compound 80, 2-(4-carbamoyl-3-nitropyrazol-1-yl)ethyl acetate] | 50 | 25 | 12.5 | < 1.56 | 12.5 | 25 | 100 | 25 | 10 | 12.5 | 3.12 | 12.5 | 33 | 50 | 1219 | 38/40 | 10/40 | 1308 | 31/40 | 6/40 | Survival ([14]; 0.1 gm./gal. in drinking water): 9/10; Survival ([14]; 0.2 gm./gal. in drinking water): 6/10; Survival ([15]; 2.5 mg./kg. subcutaneous): 4/10; Survival ([15]; 5.0 mg./kg. subcutaneous): 3/10; Survival ([15]; 10.0 mg./kg. subcutaneous): 8/10; Survival ([15]; 25.0 mg./kg. subcutaneous): 9/10; responders at 60 mg/kg [16]: 70%; Survival ([17]; Test C): 29/48; Avg. Wt. ([17]; Test C): 67 gm.; E. coli Lesions [18, 28]: 9/30; Mortality [18, 28]: 1/30; Wt. [18, 28]: 1139 gm. |
| CCn1cc(C#N)c([N+](=O)[O-])n1 [Compound 1, 1-ethyl-3-nitro-4-pyrazolecarbonitrile] |  |  |  |  |  |  |  |  |  | 100 (≈ 602 µM) |  | 12.5 (≈ 75.2 µM) |  |  |  |  |  |  |  |  | MIC [19]: 100 mg/L (≈ 602 µM); MIC [20]: > 50 mg/L; MIC [11, 29]: 100 mg/L (≈ 602 µM); MIC [21]: 100 mg/L (≈ 602 µM); control of large crabgrass [22]: kills large crabgrass |
| C=CCn1cc(C(N)=O)c([N+](=O)[O-])n1 [Compound 16, 1-allyl-3-nitro-4-pyrazolecarboxamide] | 50 (≈ 255 µM) | 12.5 (≈ 63.7 µM) | 25 (≈ 127 µM) | < 1.56 | 6.25 (≈ 31.9 µM) |  | 100 (≈ 510 µM) | 50 (≈ 255 µM) | 10 (≈ 51 µM) | 6.25 (≈ 31.9 µM) | 6.25 (≈ 31.9 µM) | 3.12 (≈ 15.9 µM) | 100 | 60 | 1112 | 40/40 | 16/40 | 1266 | 31/40 | 11/40 | Active Level (lowest feed concentration which gave an active response) [23]: .02%; responders at 60 mg/kg [16]: 100%; Survival ([17]; Test B): 26/36; Avg. Wt. ([17]; Test B): 88 gm.; Survival ([17]; Test C): 25/48; Avg. Wt. ([17]; Test C): 64 gm.; E. coli Lesions [18, 28]: 16/30; Mortality [18, 28]: 0/30; Wt. [18, 28]: 1090 gm. |
| C=Cn1cc(C(N)=O)c([N+](=O)[O-])n1 [Compound 81, 3-nitro-1-vinyl-4-pyrazolecarboxamide] |  |  |  |  |  | 1.56 (≈ 8.56 µM) |  |  |  | 1.56 (≈ 8.56 µM) |  | 25 (≈ 137 µM) | 100 | 60 | 1109 | 23/40 | 5/40 | 918 | 20/40 | 6/40 | MIC [19]: 1.56 mg/L (≈ 8.56 µM); MIC [20]: 1.56 mg/L (≈ 8.56 µM); MIC [11, 29]: 1.56 mg/L (≈ 8.56 µM); MIC [21]: 25 mg/L (≈ 137 µM); percent of T. cruzi killed [24]: 91% |
